By IC50 is commonly meant the concentration needed to halve the response being measured.

Experiment [1] in a line: DPPH radical scavenging (antioxidant) assay. Type of experiment: biochemical. The note with it: Table 10; mean ± standard deviation; 30 min, 515 nm; read-out: IC50 (μM), DPPH radical scavenging. As to the method: The DPPH radical scavenging activity of ascorbic acid (vitamin C) and the synthetic commercial antioxidant, butylated hydroxytoluene (BHT) are also assayed as positive controls (see Table 10). […] Absorbance is determined after 30 min at 515 nm, and the scavenging capacity (SC) is calculated as SC %=[(A0−A1/A0)]×100, where A0 is the absorbance of the reagent blank and A1 is the absorbance of the test samples. The control contained all reagents except the compounds, and all tests are performed in triplicate.
Absorbance is determined after 30 min at 515 nm, and the scavenging capacity (SC) is calculated as SC %=[(A0−A1/A0)]×100 where A0 is the absorbance of the reagent blank, and A1 is the absorbance with test samples. The control contained all reagents except the compounds and all tests are performed in triplicate.
In general terms: Loss of DPPH colour is used to gauge radical scavenging.

In experiment [2] the test system is CCD-18Co (normal human colon fibroblasts). Description: MTS cytotoxicity / antiproliferative assay. Type of experiment: cell-based. The note with it: Homo sapiens, CCD-18Co, 72 h. As to the method: (§1) Cell lines included three human colon cancer cells: HT-29 (human colon adenocarcinoma), HCT116 (human colon carcinoma) and Caco-2 (human epithelial colorectal adenocarcinoma). In addition, normal human colon cells are included: CCD-^18Co (human colon fibroblasts). All cell lines are obtained from the American Type Culture Collection (ATCC, Rockville, Md., USA) and maintained at the University of Rhode Island.
(§2) The assay is carried out to measure the IC50 values for samples. […] Test samples and a positive control, etoposide 4 mg/mL (Sigma), are solubilized in DMSO by sonication. […] Control wells are also included on all plates. […] Each point on the curve is […]. Data (see tables 6 to 9) are expressed as mean±SE for three replications on each cell line.

The subject of experiment [3] is HCT-116 (human colon carcinoma). Description: MTS cytotoxicity / antiproliferative assay. The note with it: Homo sapiens. Type of experiment: cell-based. Here is the method: as §1, §2
In experiment [4] the test system is HT-29 (human colon adenocarcinoma). Description: MTS cytotoxicity / antiproliferative assay. It is filed as cell-based. The note with it: Homo sapiens. Here is the method: as §1, §2
Experiment [5] relates to Caco-2 (human epithelial colorectal adenocarcinoma). The experiment in a line: MTS cytotoxicity / antiproliferative assay. The note with it: Homo sapiens. Type of experiment: cell-based. As to the method:
as §1, §2

The subject of experiment [6] is colon cancer (HCT-116, Caco-2 and HT-29) cell lines. The experiment in a line: MTS antiproliferative assay, statements pooled over the colon cancer cell lines. To be noted: Homo sapiens, read-out: IC50 range, MTS assay, ginnalins, colon cell lines.
The mark [7] stands for this setting: pure isolated compounds, read-out: Antiproliferative activity CCD-8Co 72 h (IC50).
[8] abbreviates: HCT-116, 48 h, read-out: Antiproliferative activity HCT-116 48 h (IC50), 48 h, pure isolated compounds.
Setting [9] is: HCT-116, 72 h, 72 h, pure isolated compounds, read-out: Antiproliferative activity HCT-116 72 h (IC50).
[10] abbreviates: HCT-116, 72 h, 72 h, range given for the group, read-out: IC50 against HCT-116 cells at 72 h (activity ranking).
Setting [11] is: HT-29, 48 h, read-out: Antiproliferative activity HT-29 48 h (IC50), 48 h, pure isolated compounds.
[12] abbreviates: HT-29, 72 h, 72 h, pure isolated compounds, read-out: Antiproliferative activity HT-29 72 h (IC50).
Setting [13] is: Caco-2, 48 h, read-out: Antiproliferative activity Caco-2 48 h (IC50), 48 h, pure isolated compounds.
Setting [14] is: Caco-2, 72 h, 72 h, pure isolated compounds, read-out: Antiproliferative activity Caco-2 72 h (IC50).
The mark [15] stands for this setting: Table 6 maple compounds, unit inferred, read-out: CCD-18Co 72 h(IC50).
The mark [16] stands for this setting: HCT-116, 48 h, read-out: HCT-116 48 h(IC50), Table 6 maple compounds, 48 h, unit inferred.
Setting [17] is: HCT-116, 72 h, Table 6 maple compounds, 72 h, unit inferred, read-out: HCT-116 72 h(IC50).
[18] abbreviates: HT-29, 48 h, read-out: HT-29 48 h(IC50), Table 6 maple compounds, 48 h, unit inferred.
Where [19] appears, read: HT-29, 72 h, Table 6 maple compounds, 72 h, unit inferred, read-out: HT-29 72 h(IC50).
Setting [20] is: Caco-2, 48 h, read-out: Caco-2 48 h(IC50), Table 6 maple compounds, 48 h, unit inferred.
The mark [21] stands for this setting: Caco-2, 72 h, Table 6 maple compounds, 72 h, unit inferred, read-out: Caco-2 72 h(IC50).

≈ marks a conversion by molar mass, not a printed value. Like-named read-outs stand apart in the source and are kept apart here.

Consider `COc1cc(CC(CO)C(CO)Cc2ccc(O)c(OC)c2)ccc1O` (stereo not drawn) [compound 2, secoisolariciresinol], for which the half-maximal inhibitory concentration (IC50) is 1540.9 ± 0.5 µM in experiment [1]; 99.6 ± 4.9 µM in experiment [2] (setting [7]); 78 ± 2.3 µM in experiment [3] (setting [8]); 59.1 ± 1.5 µM in experiment [3] (setting [9]); 42 to 67 µM in experiment [3] (setting [10]); 88.7 ± 2.2 µM in experiment [4] (setting [11]). Moreover, the IC50 in experiment [4] (setting [12]) is 68.2 ± 1.4 µM; in experiment [5] (setting [13]), 85 ± 3.8 µM; in experiment [5] (setting [14]) it was 70.9 ± 2.3 µM.

`COc1cc2ccc(=O)oc2cc1O` [compound 8, scopoletin]: the IC50 amounted to 655 ± 14.4 µM in experiment [1]; 103 µM in experiment [2] (setting [15]); 103 ± 5.9 µM in experiment [2] (setting [7]); 68.1 ± 1 µM in experiment [3] (setting [8]); 68.1 µM in experiment [3] (setting [16]); 60.6 ± 2 µM in experiment [3] (setting [9]). In addition, the IC50 in experiment [3] (setting [10]) is 42 to 67 µM; in experiment [3] (setting [17]), 60.6 µM; in experiment [4] (setting [11]), 78.7 ± 1.2 µM; in experiment [4] (setting [18]), 78.7 µM; in experiment [4] (setting [12]), 70 ± 1.3 µM; in experiment [4] (setting [19]), 70.2 µM. Besides, the IC50 in experiment [5] (setting [13]) was found to be 89.3 ± 0.9 µM; in experiment [5] (setting [20]), 89.3 µM; in experiment [5] (setting [14]), 82 ± 2 µM; in experiment [5] (setting [21]) it was 82 µM.

As for `O=C(OC[C@H]1OC[C@H](OC(=O)c2cc(O)c(O)c(O)c2)[C@@H](O)[C@@H]1O)c1cc(O)c(O)c(O)c1` [compound 70, 2,6-di-O-galloyl-1,5-anhydro-D-glucitol], the IC50 in experiment [2] (setting [15]) was determined as 90.6 µM; in experiment [3] (setting [16]) it was 54.6 µM; in experiment [3] (setting [17]) it was 43.4 µM; in experiment [4] (setting [18]) it was 77 µM; in experiment [4] (setting [19]), 51.6 µM; in experiment [5] (setting [20]) it was 61.6 µM. Besides, the half-inhibitory concentration (IC50) in experiment [5] (setting [21]) was 46.5 µM; in experiment [6], 16 to 24 µg/mL (≈ 34.2 to 51.2 µM).

These data come from patent US20130267474A1, “NOVEL PHYTOCHEMICALS FROM EXTRACTS OF MAPLE SYRUPS AND MAPLE TREES AND USES THEREOF” (UNIVERSITY OF RHODE ISLAND, priority 2010, published 2013).
